From patent US8314092B2, “Substituted [(5H-pyrrolo[2,1-c][1,4]benzodiazepin-11-yl)piperazin-1-yl]-2,2-dimethylpropanoic acid compounds as dual activity H1 inverse agonists/5-HT2A antagonists” (Eli Lilly and Company, priority 2011, dated 2012)
Where a name gives a salt, the structure may show the parent alone.

Tests used:
Wistar rats = assay: Sleep and behavioral monitoring in rats (EEG, EMG, motion); assay type: in vivo; settings: rat; for Rebound Insomnia, Adj. Mean: NREM + REM sleep in 7th-9th hours post-treatment; for Rebound Insomnia, Adj. Mean / REM inhibition, Adj. Mean / Cumulative NREM sleep, Adj. Mean / Cumulative Total sleep, Adj. Mean / Locomotor Activity Intensity, Adj. Mean: difference from vehicle; for REM inhibition, Adj. Mean: REM sleep in first 12 hours post-treatment; for Cumulative NREM sleep, Adj. Mean / Cumulative Total sleep, Adj. Mean / Locomotor Activity Intensity, Adj. Mean / Average Sleep Bout, Adj. Mean / Longest Sleep Bout, Adj. Mean: first 6 hours post-treatment; for Average Sleep Bout, Adj. Mean / Longest Sleep Bout, Adj. Mean: n-fold increase over vehicle controls
Protocol: Sleep and behavioral monitoring in rats: Representative compounds of the present invention are tested in rats for their ability to increase the amount of sleep or decrease sleep interruption or both without undesired effects such as inhibition of REM sleep, waking motor impairment, and/or rebound insomnia. Test animals are continuously monitored by electro-encephalograms (EEG), electromyograms (EMG), and motion to measure cumulative nonREM sleep, cumulative total sleep, average sleep bout duration, longest sleep bout duration, rebound insomnia, REM sleep inhibition and locomotor activity intensity during wakefulness. Methods for such studies are known in the art (see for example methods described in Edgar D M, Seidel W F. Modafinil induces wakefulness without intensifying motor activity or subsequent rebound hypersomnolence in the rat. J Pharmacology & Experimental Therapeutics 1997; 283: 757-769; van Gelder R N, Edgar D M, Dement W C. Real-time automated sleep scoring: validation of a microcomputer-based system for mice. Sleep 1991, 14: 48-55; and Gross B A, Walsh C M, Turakhia A A, Booth V, Mashour G A, Poe G R. Open-source logic-based automated sleep scoring software using electrophysiological recordings in rats. J Neurosci Methods. 2009; 184(1):10-8.) Studies are conducted as follows: Animal preparation. Adult, male Wistar rats (approximately 270-300 g at time of surgery) are surgically fitted for chronic recording of EEG, EMG, and motion as follows: Rats are surgically prepared with a cranial implant consisting of four stainless steel screws for EEG recording (two frontal [3.9 mm anterior from bregma, and ±2.0 mm mediolaterally] and two occipital [6.4 mm posterior from bregma, ±5.5 mm mediolaterally]), and with two Teflon-coated stainless steel wires for EMG recording (positioned under the nuchal trapezoid muscles). All leads are soldered to a miniature connector (Microtech, Boothwyn, Pa.) prior to surgery. The implant assembly is affixed to the skull by the combination of the stainless steel EEG recording screws, cyanoacrylate applied between the implant connector and skull, and dental acrylic. Locomotor activity is monitored via a miniature transmitter (Minimitter PDT4000G, Philips Respironics, Bend, Oreg.) surgically placed into the abdomen. At least 3 weeks are allowed for recovery. Recording environment. Each rat is housed individually within a microisolator cage modified with an inserted polycarbonate filter-top riser to allow more vertical headroom. A flexible cable that minimally restricts movement is connected at one end to a commutator affixed to the cage top and at the other end to the animal's cranial implant. Each cage is located within separate, ventilated compartments of a stainless steel sleep-wake recording chamber. Food and water are available ad libitum and the ambient temperature is maintained at about 23±1° C. A 24-hr. light-dark cycle (LD 12:12) using fluorescent light is maintained throughout the study. Relative humidity averages approximately 50%. Animals are undisturbed for at least 30 hrs before and after each treatment. Study design and dosing. The vehicle (placebo, methylcellulose 15 centipoise 0.25% in water) or one of the test compound dose levels is administered orally at 1 mL/kg pseudo-randomly such that no rat receives the same treatment twice, and no rat receives more than two of the 8 treatments in any one study. Each rat is removed from its cage for about a minute to be weighed and treated. At least 6 days “washout” period precede and follow each treatment. Data collection. […]

[1] = target: human recombinant H1 receptor (Homo sapiens, UniProt P35367); assay: H1 competition binding assay ([3H]-Pyrilamine SPA); design: expressed in transfected cells
Protocol: [^3H]-Pyrilamine binding experiments are carried out in SPA (scintillation proximity assay) 96-well format. Membranes used in this assay are prepared from HEK-293 cells stably expressing recombinant H1 receptor (human). The incubation is initiated by the addition of a mixture of WGA PVT SPA beads (1 mg/well, Perkin Elmer (MA, USA) RPNQ0001) and 3 μg membranes to assay buffer (67 mM Tris; pH 7.6) containing 3.5 nM [^3H]-Pyrilamine and varying concentrations of the test compound (10 point concentration response curves). Non-specific binding is determined in the presence of 10 μM Triprolidine. Samples are incubated for four hours at room temperature (22° C.) and then read in a Microbeta Trilux.
Curves are evaluated using a 4-parameter logistic nonlinear equation to obtain the concentration of competitor causing 50% inhibition of radioligand binding (IC50). Equilibrium dissociation constants (Ki) are calculated according to the equation Ki=IC50/(1+L/Kd), where L equals the concentration of radioligand used in the experiment and Kd equals the equilibrium dissociation constant of the radioligand for the receptor, determined from standard saturation analysis or homologous competition experiments. Reported values for Ki, where n values are indicated, are shown as geometric mean±the standard error of the mean (SEM), with the number of replicate determinations indicated by n. […]

[2] = PO, 6 hour period after treatment

human recombinant H1 receptor, sequence (P35367 whole entry): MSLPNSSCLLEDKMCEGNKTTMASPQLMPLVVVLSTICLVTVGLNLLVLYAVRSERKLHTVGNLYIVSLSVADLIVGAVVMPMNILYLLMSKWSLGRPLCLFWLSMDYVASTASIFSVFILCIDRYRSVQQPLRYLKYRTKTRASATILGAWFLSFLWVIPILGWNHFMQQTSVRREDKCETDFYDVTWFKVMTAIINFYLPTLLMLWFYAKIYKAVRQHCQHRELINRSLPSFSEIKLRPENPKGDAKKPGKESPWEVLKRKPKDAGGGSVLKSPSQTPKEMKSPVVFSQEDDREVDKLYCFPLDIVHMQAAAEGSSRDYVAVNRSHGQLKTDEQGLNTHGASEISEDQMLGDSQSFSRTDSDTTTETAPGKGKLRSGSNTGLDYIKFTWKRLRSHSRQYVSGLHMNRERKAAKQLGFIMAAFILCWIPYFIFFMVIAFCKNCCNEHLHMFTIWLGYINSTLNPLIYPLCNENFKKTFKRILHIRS

Cc1cc2n(c1)Cc1cc(Cl)ccc1N=C2N1CCN(CC(C)(C)C(=O)O)CC1 [Example 13, 3-[4-(7-Chloro-2-methyl-5H-pyrrolo[2,1-c][1,4]benzodiazepin-11-yl)piperazin-1-yl]-2,2-dimethylpropanoic acid dihydrochloride] was tested, and the “Rebound Insomnia, Adj. Mean” value (Wistar rats; 0.03 mg/kg PO) was -0.7 min, the “REM inhibition, Adj. Mean” value (Wistar rats; 0.03 mg/kg PO) was 1.8 min and the “Cumulative NREM sleep, Adj. Mean” value (Wistar rats; 0.03 mg/kg PO) was 5.1 min. For the same molecule, the “Cumulative Total sleep, Adj. Mean” value (Wistar rats; 0.03 mg/kg PO) was 7.3 min, the “Locomotor Activity Intensity, Adj. Mean” value (Wistar rats; 0.03 mg/kg PO) was −0.97 LMA counts per minute of EEG-defined wakefulness and the “Average Sleep Bout, Adj. Mean” value (Wistar rats; 0.03 mg/kg PO) was 1.1 n-fold. For the same molecule, the “Longest Sleep Bout, Adj. Mean” value (Wistar rats; 0.03 mg/kg PO) was 1.3 n-fold, the “Rebound Insomnia, Adj. Mean” value (Wistar rats; 0.10 mg/kg PO) was -5.4 min and the “REM inhibition, Adj. Mean” value (Wistar rats; 0.10 mg/kg PO) was 1.0 min. The “Cumulative NREM sleep, Adj. Mean” value (Wistar rats; 0.10 mg/kg PO) was 5.9 min, the “Cumulative Total sleep, Adj. Mean” value (Wistar rats; 0.10 mg/kg PO) was 5.9 min and the “Locomotor Activity Intensity, Adj. Mean” value (Wistar rats; 0.10 mg/kg PO) was −0.35 LMA counts per minute of EEG-defined wakefulness. For the same molecule, the “Average Sleep Bout, Adj. Mean” value (Wistar rats; 0.10 mg/kg PO) was 1.1 n-fold, the “Longest Sleep Bout, Adj. Mean” value (Wistar rats; 0.10 mg/kg PO) was 1.7 n-fold and the “Rebound Insomnia, Adj. Mean” value (Wistar rats; 0.25 mg/kg PO) was -1.9 min. The “REM inhibition, Adj. Mean” value (Wistar rats; 0.25 mg/kg PO) was 4.7 min, the “Cumulative NREM sleep, Adj. Mean” value (Wistar rats; 0.25 mg/kg PO) was 15.2 min and the “Cumulative Total sleep, Adj. Mean” value (Wistar rats; 0.25 mg/kg PO) was 17.7 min. The “Locomotor Activity Intensity, Adj. Mean” value (Wistar rats; 0.25 mg/kg PO) was −0.58 LMA counts per minute of EEG-defined wakefulness, the “Average Sleep Bout, Adj. Mean” value (Wistar rats; 0.25 mg/kg PO) was 1.2 n-fold and the “Longest Sleep Bout, Adj. Mean” value (Wistar rats; 0.25 mg/kg PO) was 1.7 n-fold. The “Rebound Insomnia, Adj. Mean” value (Wistar rats; 0.50 mg/kg PO) was -7.2 min, the “REM inhibition, Adj. Mean” value (Wistar rats; 0.50 mg/kg PO) was 5.8 min and the “Cumulative NREM sleep, Adj. Mean” value (Wistar rats; 0.50 mg/kg PO) was 22.2 min. For the same molecule, the “Cumulative Total sleep, Adj. Mean” value (Wistar rats; 0.50 mg/kg PO) was 25.1 min, the “Locomotor Activity Intensity, Adj. Mean” value (Wistar rats; 0.50 mg/kg PO) was −0.14 LMA counts per minute of EEG-defined wakefulness and the “Average Sleep Bout, Adj. Mean” value (Wistar rats; 0.50 mg/kg PO) was 1.4 n-fold. The “Longest Sleep Bout, Adj. Mean” value (Wistar rats; 0.50 mg/kg PO) was 1.8 n-fold, the “Rebound Insomnia, Adj. Mean” value (Wistar rats; 1 mg/kg PO) was -9.7 min and the “REM inhibition, Adj. Mean” value (Wistar rats; 1 mg/kg PO) was 2.6 min. The “Cumulative NREM sleep, Adj. Mean” value (Wistar rats; 1 mg/kg PO) was 28.0 min, the “Cumulative Total sleep, Adj. Mean” value (Wistar rats; 1 mg/kg PO) was 30.6 min and the “Locomotor Activity Intensity, Adj. Mean” value (Wistar rats; 1 mg/kg PO) was −2.94 LMA counts per minute of EEG-defined wakefulness. For the same molecule, the “Average Sleep Bout, Adj. Mean” value (Wistar rats; 1 mg/kg PO) was 1.6 n-fold, the “Longest Sleep Bout, Adj. Mean” value (Wistar rats; 1 mg/kg PO) was 2.5 n-fold and the “REM sleep inhibition (in words)” value (Wistar rats; 3 mg/kg) was “without significant”. For the same molecule, the “cumulative NREM sleep time (in words)” value (Wistar rats; 3 mg/kg) was “significantly increase”, the “cumulative total sleep time (in words)” value (Wistar rats; 3 mg/kg) was “significantly increase” and the “inhibition of locomotor intensity (LMI) (in words)” value (Wistar rats; 3 mg/kg) was “without significant”. The “rebound insomnia (in words)” value (Wistar rats; 3 mg/kg) was “without significant”, the “Rebound Insomnia, Adj. Mean” value (Wistar rats; 3 mg/kg PO) was -7.8 min and the “REM inhibition, Adj. Mean” value (Wistar rats; 3 mg/kg PO) was 7.0 min. For the same molecule, the “Cumulative NREM sleep, Adj. Mean” value (Wistar rats; 3 mg/kg PO) was 39.5 min, the “Cumulative Total sleep, Adj. Mean” value (Wistar rats; 3 mg/kg PO) was 42.3 min and the “Locomotor Activity Intensity, Adj. Mean” value (Wistar rats; 3 mg/kg PO) was −1.49 LMA counts per minute of EEG-defined wakefulness. The “Average Sleep Bout, Adj. Mean” value (Wistar rats; 3 mg/kg PO) was 1.8 n-fold, the “Longest Sleep Bout, Adj. Mean” value (Wistar rats; 3 mg/kg PO) was 2.7 n-fold and the “Rebound Insomnia, Adj. Mean” value (Wistar rats; 10 mg/kg PO) was 3.1 min. The “REM inhibition, Adj. Mean” value (Wistar rats; 10 mg/kg PO) was 2.9 min, the “Cumulative NREM sleep, Adj. Mean” value (Wistar rats; 10 mg/kg PO) was 51.8 min and the “Cumulative Total sleep, Adj. Mean” value (Wistar rats; 10 mg/kg PO) was 52.8 min. The “Locomotor Activity Intensity, Adj. Mean” value (Wistar rats; 10 mg/kg PO) was −0.11 LMA counts per minute of EEG-defined wakefulness, the “Average Sleep Bout, Adj. Mean” value (Wistar rats; 10 mg/kg PO) was 2.3 n-fold and the “Longest Sleep Bout, Adj. Mean” value (Wistar rats; 10 mg/kg PO) was 3.1 n-fold. The “Estimated efficacy dose (mg/kg), NREM accumulation = 30 min” value (Wistar rats; [2]) was 1.2 mg/kg, the “Estimated efficacy dose (mg/kg), average sleep bout (1.5-fold increase)” value (Wistar rats; [2]) was 0.77 mg/kg and the “Estimated efficacy dose (mg/kg), longest sleep bout (1.75-fold increase)” value (Wistar rats; [2]) was 0.21 mg/kg. The “Estimated efficacy dose (mg/kg), total sleep accumulation = 25 min” value (Wistar rats; [2]) was 0.58 mg/kg and the Ki [1] was 16.8 nM.
